According to US20030013078A1, “HIV-1 reporter viruses and their use in assaying anti-viral compounds” (priority 2000, published 2003):

What was measured:
Format in all cases: cell-based, HIV-1
[1] = tested on: JRFNSEAP; assay: Inhibition of JRFNSEAP reporter virus replication in MT-2 #18 cells (SEAP activity); conditions: Human immunodeficiency virus 1, provirus JRFNSEAP (CCR5-tropic), MOI 0.01, read-out: EC50, inhibition of viral replication
Description: (§1) MT-2 #18 cells were pelleted and infected with virus stocks at a multiplicity of infection (MOI) of 0.01 at 37° C. for 2hrs. Viruses were removed and cells were washed twice with 1×PBS before re-suspending in a final concentration of 10,000 cells/100 uL. Infectivity and drug sensitivity assays were carried out in 96 well tissue culture plates, and kinetic studies were carried out in T-25 flasks. Cell supernatants were harvested on day 0, 2, 3, 5 or 6, and passaged virus was harvested on day 2 or 3. The activity for the capsid protein p24 was analyzed according to manufacturer's protocol utilizing the Zeptometrix Retrotek product (Zeptometrix Incorporated, Buffalo, N.Y.).
(§2) Large volume cultures of MT-2 #18 cells were prepared and kept at a concentration of less than 0.5×10^6 cells per milliliter in RPMI media with 10% fetal calf serum. Test compounds were plated into a 96 well tissue culture treated clear bottom black plates (Corning Incorporated, Corning, N.Y.) at a concentration of 3 mM in 20 microliters of dionized water and 5% dimethyl sulfoxide. […]
Secreted placental alkaline phosphatase (SEAP) activity was measured using the a 1,2 dioxetane alkaline phosphatase substrate called CSPD (Tropix PE Applied Biosystems, Bedford, Mass.). […] Light emission can be measured utilizing a scintillation counter or a luminometer. […]

[2] = tested on: JRFNRLuc; assay: Inhibition of JRFNRLuc reporter virus replication in MT-2 #18 cells (renilla luciferase activity); conditions: Human immunodeficiency virus 1, read-out: EC50, inhibition of viral replication
Description: as §1, §2
(§3) Renilla luciferase activity was measured using the Promega Dual Luciferase Reporter kit (Promega Corp., Madison, Wis.). […] Following the substrate addition, plates were immediately sealed and read for 5 seconds per well in a Wallac Microbeta 1450 (Perkin-Elmer Wallac Incorporated, Gaithersburg, Md.) in the luminescence mode. […]

[3] = tested on: NL4Rluc; assay: Inhibition of NL4Rluc reporter virus replication in MT-2 #18 cells (renilla luciferase activity); conditions: Human immunodeficiency virus 1, read-out: EC50, inhibition of viral replication
Description: as §1, §2, §3

[4] = tested on: JRFNFLuc; assay: Inhibition of JRFNFLuc reporter virus infection in MT-2 #18 cells (firefly luciferase activity); conditions: for EC50: Human immunodeficiency virus 1, read-out: EC50, inhibition of viral replication
Description: as §1
Large volume cultures of MT-2 #18 cells were prepared and kept at a concentration of less than 0.5×10^6 cells per milliliter in RPMI media with 10% fetal calf serum. Test compounds were plated into a 96 well tissue culture treated clear bottom black plates (Corning Incorporated, Corning, N.Y.) at a concentration of 3 mM in 20 microliters of dionized water and 5% dimethyl sulfoxide. MT-2 #18 cells were pelleted via low speed centrifugation and re-suspended in fresh media. Reporter viruses were added to the fresh media and cells to obtain the appropriate MOI of 0.01 and a cell concentration of 1×10^4 in 160 microliters. Twenty microliters per well of 2×complete modified eagle's media was then added to compensate for the dionized water volume. 180 microliters of this mixture is then added to each test compound well and control wells. Following a 5 to 6 day incubation at 37° C., media was aspirated from the wells utilizing a 12-channel manifold.
The replication ability of the NL4Rluc and JRFNRLuc viruses were then compared to that of the JRFNFLuc virus. JRFNFLuc differs from JRFNRLuc in that it encodes the firefly luciferase gene instead of the renilla luciferase gene. JRFNFLuc was constructed in a fashion similar to that previously reported (Chen et al., 1994). Infection of T-cell lines by JRFNFLuc was carried out exactly as that was done for NL4Rluc and JRFNRLuc viruses. […] Upon passing the day 6 post infection JRFNFLuc supernatant onto uninfected MT-2 #18 cells, no firefly luciferase activity or p24 production could be detected up to seven days post inoculation (data not shown). […] The finding that this virus was not capable of inhibition by a late stage HIV-1 replication cycle inhibitor is further evidence of it not being able to replicate.

| SMILES | EC50 [1] [nM] | EC50 [2] [nM] | EC50 [3] [nM] | Non-inhibiting concentration on JRFNFLuc relative to the EC50 on the replication competent JRFNRLuc ([4]; 10 uM versus JRFNRLuc) | EC50 [4] [nM] | Inhibition of JRFNFLuc virus ([4]; at 10 uM) |
| --- | --- | --- | --- | --- | --- | --- |
| CC(C)CN(C[C@@H](O)[C@H](Cc1ccccc1)NC(=O)O[C@H]1CCOC1)S(=O)(=O)c1ccc(N)cc1 [Amprenavir] | 21.5 | 6.9 | 19.4 | over 1000 fold | > 10000 | unable to inhibit |
| O=C1Nc2ccc(Cl)cc2[C@@](C#CC2CC2)(C(F)(F)F)O1 [Efavirenz] | 0.1 | 0.12 | 0.36 | – | 0.18 | – |
